Measurements reported in patent US5475029A, “Farnesyl compounds as cholesterol lowering agents” (The Board of Trustees of the Leland Stanford Junior …, priority 1993, dated 1995).

Key:
[1] = system: cholesterol biosynthetic pathway; assay: TLC distribution of [3H]acetate-derived non-saponifiable lipids (site of metabolic block); type: cell-based; set-up: radioactivity in the cell-derived fraction co-migrating with lanosterol / radioactivity in the cell-derived fraction co-migrating with squalene / radioactivity in the cell-derived fraction co-migrating with cholesterol / remaining radioactivity in the cell-derived fraction scattered throughout the rest of the TLC lane: concentration or dose not given beside the values
Procedure: Lipid Saponification and Extraction Procedure Saponification and extraction of lipids from cell and media samples was performed as previously described in Bradfute, et al. (1992) J.B.C. 267:18308-18314.
Thin Layer Chromatography--TLC was performed using Analtech 250 μm silica gel G plates with a hexanes/diethyl ether (1:1) solvent system. Lipid standards were visualized by iodine staining. Bands were scraped from the plate and their radioactivity was measured.
Quantification of Radioactivity--Samples were suspended in 4 ml of scintillation fluid (Cytoscint from ICN). The radioactivity of the samples was measured using a Beckman LS-7500 scintillation counter.
To determine tile site of tile metabolic block caused by farnesyl acetate and ethyl farnesyl ether, the non-saponifiable lipids from cells grown in the presence of the farnesyl compounds were examined for the accumulation of intermediates in the cholesterol biosynthetic pathway. The cells were only labeled for 1 hour and only treated with the farnesyl compounds during the labeling period; so that any intermediates which accumulated would be as a result of the inhibitory effects of the farnesol compounds and not subsequent regulatory effects on HMG-CoA reductase. CHO-HMGal cells were incubated with [^3 H]acetate and either farnesyl acetate, ethyl farnesyl ether, or no additive. The non-saponifiable lipids were isolated from both the cell, and the medium and separated by TLC.

HMGal = HMGal degradation rate (pulse-chase); type: cell-based; settings: 10 μg/ml during chase; untreated 6.4 hours
Procedure: Measurement of HMGal and HMG-CoA Reductase Degradation Rates Cells grown in 60×15 mm dishes were washed once with ice-cold PBS and starved for 1 hour in 1 ml of methionine-free MEM supplemented with 5% LPS, 250 μg/ml of active geneticin, 10 μM compactin, and 0.1 mM mevalonate. These cells were radio-labeled for 2 hours in 300 μl of the methionine-free starvation medium containing 100 μCi of Tran^35 S-label (>1,000 Ci/mmol). Cells were incubated in an MEM-based chase medium containing 2 mM methionine, 5% LPS, 250 μg/ml of active geneticin, 10 μM compactin, and 0.1 mM mevalonate. During the chase period, some plates also had either 20 mM mevalonate, 10 μg/ml farnesyl acetate or 10 μg/ml ethyl farnesyl ether added to them as indicated in the figure legend. Following the chase, cells were washed, lysed and the HMGal and HMG-CoA reductase proteins were immunoprecipitated, subjected to SDS-PAGE and quantified.
In order to test whether the farnesyl compounds impact degradation, the rates of degradation for HMGal, HMG-CoA reductase, and total cellular protein were measured in the presence and absence of 10 μg/ml farnesyl acetate and ethyl farnesyl ether.

[2] = 1 hour labeling with [3H]acetate, compound only during labeling

CC(=O)OCC=C(C)CCC=C(C)CCC=C(C)C [farnesyl acetate]
radioactivity in the cell-derived fraction co-migrating with cholesterol [1, 2]: 4%
radioactivity in the cell-derived fraction co-migrating with lanosterol [1, 2]: 74%
radioactivity in the cell-derived fraction co-migrating with squalene [1, 2]: 9%
remaining radioactivity in the cell-derived fraction scattered throughout the rest of the TLC lane [1, 2]: 13%
total non-saponifiable radioactivity found in the medium ([1]; untreated 6%): 12%
total non-saponifiable radioactivity found in the cells ([1]; untreated 94%): 88%
increase in media-derived material co-migrating with farnesol ([1]; versus untreated sample): ~3 fold
half-life of HMGal (HMGal): 3.9 h
reduction of the half-life of HMGal (HMGal): 40%
